Here are results for 2 compounds from EP1372636B1, “METRONOMIC DOSING OF TAXANES FOR INHIBITING TUMOR GROWTH” (Bristol-Myers Squibb Company, priority 2001, dated 2002).

The structures appear in SMILES notation. Like-named read-outs stand apart in the source and are kept apart here.

The subject of data set [1] is human umbilical vein endothelial cell (HUVEC). Nature of the data set: HUVEC proliferation (3H-thymidine incorporation). The following applies: for IC50: Homo sapiens, HUVEC, read-out: IC50 in Cells HUVEC. Format: cell-based. A general note: Uptake of a labelled nucleoside into DNA is a usual measure of proliferation.
Method: (§4) Primary human umbilical vein endothelial cells (HUVEC) were purchased from CLONETICS Inc. (San Diego, CA) and used at passage 2 to 3. Proliferation was measured using ^3H-thymidine incorporation in cells by pulsing twenty-four hours prior to harvesting cell cultures. The human breast carcinoma line H3396 was used to assess activity of compound on tumor cells. Cells (2 x 10^3) were plated on collagen IV coated 96 well plates. Twenty-four hours later, compounds were added at varying concentrations. After 48 hours, ^3H-thymidine was added and cells were allowed to incorporate this label over a twenty-four hour period. Cellular extracts were harvested onto glass filters and incorporated radioactivity was determined by counting in a Beta scintillation counter. The IC50, defined as the drug concentration that causes 50% inhibition of ^3H-thymidine incorporation, was extrapolated from the plotted data.
Data set [2] has as its system human breast carcinoma line H3396. The experiment in a line: H3396 tumor cell proliferation (3H-thymidine incorporation). It counts as cell-based.
Method: as §4
In data set [3] the test system is HUVEC. Nature of the data set: In vitro HUVEC tube formation on […]. Format: cell-based, human. On the set-up: key: C= complete; P= partial. As to the method: Angiogenesis results in a network of functional blood vessels that contain red blood cells. In vitro assays that, in part, mimic that process have been established. Primary endothelial cells such as HUVEC when placed on […] (Collaborative Research, Inc.) form a three-dimensional network of tubes that align into cords. In this assay system, tube formation was evaluated on an extracellular protein matrix consisting of […] diluted 1:1 with culture media (EBM-2; CLONETICS, Inc.) and allowed to polymerize for 60 minutes at 37 C. […] Eighteen hours following the plating of cells, the media was removed and cultures were fixed in formalin. Inhibition of tubes on […] is evaluated on an inverted microscope using phase contrast lighting. To determine the effect of compounds in this assay, a descriptive approach was developed. […] Partial inhibition is defined as an incomplete network with a large number of single cells. Complete inhibition is defined as greater than 99% of cells occurring as single cells with no elongated or branching structures. The number of single cells occurring after vehicle treatment (control) is subtracted from the total number of single cells occurring in the treated groups prior to assessing the effects of test compounds for establishing background effects.

A short description of data set [4]: In vivo […] plug angiogenesis model (number of endothelial cells in plugs). On the set-up: species or system athymic (nu/nu) Balb/c mice. The settings on record: mouse, in vivo, read-out: maximum tolerated dose (MTD). As to the method:
(§1) LX1 human lung tumor fragments that were maintained by serial subcutaneous passage in athymic (nu/nu) Balb/c mice were implanted subcutaneously as small fragments approximately 0.1 mm^3 in size. Tumor volume doubling time for this tumor in these studies was 2.8 days. When tumors reached the size range of 150-200 mm^3, liquid […] was injected subcutaneously on the side contralateral to the tumor. Treatment was initiated 24 hours later at varying doses and schedules. Prior to implanting, […] is prepared by placing solidified […] on ice overnight at 4 C in accordance with the method described by Passiniti et al. (Lab. Invest. 1992 67:519-28). At the liquid phase and while on ice, VEGF and bFGF (Peprotech, Inc. Rocky Hill, NJ) is added to the […] at final respective concentrations of 75 ng/ml and 300 ng/ml. Stock solutions of these growth factors are made fresh at […] in PBS. Twenty-four hours following final treatment, animals were sacrificed by cervical dislocation and […] plugs from treated and control animals were excised and fixed for at least 48 hours in 10% neutral buffered formalin. These plugs were then processed for paraffin embedding and sectioned at 5 µm thickness followed by staining with hematoxylin and eosin prior to quantitative analysis. The number of endothelial cells in plugs was quantitated using the IMAGEPRO PLUS software (Media Cybernetics, Inc., Silver Spring, MD) at a magnification of 20x. Fifty fields of view from each plug were used for counting the number of endothelial cells. The number of cells were summarized and compared statistically to controls.
(§2) Angiogenesis is evaluated in these plugs as the number of endothelial cells migrating into plugs from compound treated groups relative to the vehicle treated group. Tumors were implanted for the purpose of monitoring the anti-tumor effects of these compounds throughout these studies in order to assure compound efficacy at the therapeutic doses.
(§3) For TAXOL, normal saline was used as the diluent and delivery was made intravenously. For the oral taxane of Formula I, sterilized water was used as the diluent and delivery was by oral gavage.

Data set [5] concerns endothelial cells occurring in MATRIGEL plugs. The data set is described as above. On the set-up: species or system athymic (nu/nu) Balb/c mice. The settings on record: q2dx5; for reduction of cell number in plugs: oral gavage. Here is the method: as §1, §2, §3
The subject of data set [6] is mammary 16/C murine carcinoma. Nature of the data set: Staged subcutaneous mammary 16/C carcinoma in mice, gross log cell kill. Format: in vivo, C3H mice. The source says: The final concentrations of each component of the vehicle was as follows: CREMOPHOR 10%; ethanol 10%; aqueous 80%.
C3H conventional mice were purchased from Harlan-Sprague Dawley (Indianapolis, IN) and fed mouse chow and water ad libitum.
The metastatic mammary 16/C murine carcinoma was propagated biweekly in C3H mice. Experiments were initiated by subcutaneous insertion by trocar of tumor fragments.
For in vivo tumor testing, the C3H mice were implanted subcutaneously with mammary 16/C tumor fragments. All treatments were initiated on Day 10 post-tumor implant, except for an untreated control group. All groups contained 8 mice. Tumors were measured once or twice weekly and dimensions were converted to weights using the formula Weight (milligrams)= a x b^2, where a=length and b=width (in millimeters). The median time for tumors within each group of mice to reach 1 gram was determined and the delays in median time to reach 1 gram tumor target size for treated (T) versus control (C) groups was calculated. These delays in tumor growth (T-C value in days) were further converted to gross log cell kill (LCK) values using the formula T-C/(tumor volume doubling time, TVDT, of the control group) x (3.32). A LCK of greater than or equal to 1 LCK was considered an active result. Cures were assessed at the end of each experiment and defined in the absence of a tumor mass of greater than 35 milligrams. Experiments were terminated more than 10 x TVDT following the completion of all treatments.

The nature of data set [7]: Oral bioavailability in the rat. Format: in vivo.
Data set [8] is described as follows: Oral bioavailability in the dog. It counts as in vivo.
The test system of data set [9] is L2987 human lung tumor.
From the text: L2987 human lung tumors were implanted and allowed to reach 50 to 100 mm^3 before drug administration.

As a reminder, the MTD is the largest dose that counted as tolerated. Turning to `CC(=O)O[C@H]1C(=O)[C@@]2(C)[C@H]([C@H](OC(=O)c3ccccc3)[C@]3(O)C[C@H](OC(=O)[C@H](O)[C@@H](NC(=O)c4ccccc4)c4ccccc4)C(C)=C1C3(C)C)[C@]1(OC(C)=O)CO[C@@H]1C[C@@H]2O` [TAXOL, paclitaxel], the IC50 amounted to 3 nM in [1] (3H-thymidine incorporation, two separate experiments (two columns)) and 3 nM in [2] (H3396, 3H-thymidine incorporation, two separate experiments (two columns), read-out: IC50 in Cells H3396). Besides, the H3396/HUVEC in data set [1] (ratio of IC50 in H3396 to IC50 in HUVEC) is listed as 0.88. In addition, the “Inhibition of HUVEC Tube Formation on MATRIGEL” value is “P” in data set [3] (0.0005µM); “P” in data set [3] (0.0050µM); “C” in data set [3] (0.0500µM); “C” in data set [3] (0.5000µM); “C” in data set [3] (5.000µM). For the same compound, the MTD in data set [4] (athymic (nu/nu) Balb/c, intravenous) worked out at 24 mg/kg. The “reduction in cell number in MATRIGEL plugs compared to control groups” value in [5] (24 mg/kg (MTD), intravenously) is recorded as “greater than 50%”. Also, the “Gross LCK” value is given as 4.5 in data set [6] (Paclitaxel 20 mg/kg/inj qd 10-14 iv, no Formula I, Paclitaxel 20 mg/kg/inj qd 32-36 iv); 4.7 in data set [6] (Paclitaxel 20 mg/kg/inj qd 10-14 iv, no Formula I, Paclitaxel 30 mg/kg/inj qd 32-36 iv); 1.9 in [6] (Paclitaxel 30 mg/kg/inj qd 10-14 iv alone (single course)); 1.9 in data set [6] (Paclitaxel 45 mg/kg/inj qd 10-14 iv alone (single course)). Besides, the cures/total in data set [6] (Paclitaxel 30 mg/kg/inj qd 10-14 iv alone, Cures assessed on Day 60) was 2/8; in [6] (Paclitaxel 45 mg/kg/inj qd 10-14 iv alone, Cures assessed on Day 60 post tumor implant), 1/8; in [6] (Paclitaxel 20 qd 10-14 iv, no Formula I, Paclitaxel 30 qd 32-36 iv, Cures assessed on Day 88) it was 1/8; in data set [6] (Paclitaxel 30 qd 10-14 iv, no Formula I, Paclitaxel 30 qd 32-36 iv, Cures assessed on Day 88 post-tumor implant, listed as Paclitaxel), 2/8; in data set [6] (Paclitaxel 30 qd 10-14 iv, no Formula I, Paclitaxel 30 qd 32-36 iv, Cures assessed on Day 88 post-tumor implant, listed as paclitaxel), 2 of 8. Also, the MTD regimen in [6] (qdx5, iv, beginning on Day 10 post-tumor implant) is 45 mg/kg/injection.

In the case of `COC(=O)O[C@@]12CO[C@@H]1C[C@H](O)[C@@]1(C)C(=O)[C@H](OC(C)=O)C3=C(C)[C@@H](OC(=O)[C@H](O)[C@@H](NC(=O)OC(C)(C)C)C(C)(C)C)C[C@@](O)([C@@H](OC(=O)c4ccccc4)[C@H]21)C3(C)C` [Formula I, 3'-tert-Butyl-3'-N-tert-butyloxycarbonyl-4-deacetyl-3'-dephenyl-3'-N-debenzoyl-4-O-methoxycarbonyl-paclitaxel], the IC50 is 2 nM in [1] and 2 nM in data set [2] (H3396, read-out: IC50 in Cells H3396, 3H-thymidine incorporation, two separate experiments (two columns)). The “Inhibition of HUVEC Tube Formation on MATRIGEL” value in data set [3] (0.0005µM) is “P”; in [3] (0.0050µM), “P”; in data set [3] (0.0500µM), “C”; in [3] (0.5000µM), “C”; in [3] (5.000µM), “C”. Further, the MTD in data set [4] (po) was determined as 60 mg/kg. Moreover, the “reduction of cell number in plugs” value in [5] (18 mg/kg), in [5] (36 mg/kg) and in [5] (60 mg/kg (MTD)) was “greater than 50%” in each case. The oral bioavailability entry in data set [7] and in [8] was “good” throughout. For the same compound, the weight loss entry in data set [9] (20 mg/kg orally, metronomic schedule q2dx15) is listed as “no weight loss was observed”; in data set [9] (60 mg/kg orally, standard schedule q2dx5), “weight loss was also observed”. In addition, the tumor growth result in [9] (20 mg/kg orally, metronomic schedule q2dx15 (cumulative 300 mg/kg)) is listed as “suppressed tumor growth”. Also, the anti-tumor response entry in [9] (60 mg/kg orally, standard schedule q2dx5 (cumulative 300 mg/kg), compared with metronomic regime) is reported as “greater anti-tumor response”.
